For data set [1], the target named is T1, mGlu5 (Rattus norvegicus, UniProt P31424). Nature of the data set: mGlu5 cell-based in vitro functional assay. Particulars: for IC50/EC50 (nM): EC50: PAM, potentiation in the presence of glutamate EC20; for IC50/EC50 (nM): EC50 / IC50/EC50 (nM): IC50: average of at least three independent determinations; for IC50/EC50 (nM): IC50: NAM.
In data set [2] the test system is amphetamine-induced hyperlocomotion in rats. The note with it: cited from earlier work.
The target of data set [3] is T1, mGlu5. The note with it: cited from earlier work.
The next data set deals with mGlu2 (Homo sapiens, UniProt Q14416). The experiment in a line: mGlu selectivity, mGlu2. The format is cell-based.
In the next data set the target is mGlu1 (Homo sapiens, UniProt Q13255). Nature of the data set: mGlu selectivity, mGlu1. The format is cell-based.
The subject of a further data set is punished responding. Nature of the data set: Modified Geller-Seifter conflict model. The format is in vivo, rodent. The note with it: 1, 3, 10, 30 mg/kg.
Another data set deals with mGlu8 (Homo sapiens, UniProt O00222). The experiment in a line: mGlu selectivity, mGlu8. In kind it is cell-based.
The target of another data set is mGlu7 (Homo sapiens, UniProt Q14831). The experiment in a line: mGlu selectivity, mGlu7. In kind it is cell-based.
The next data set concerns the target mGlu3 (Homo sapiens, UniProt Q14832). Nature of the data set: mGlu selectivity, mGlu3. In kind it is cell-based.
The target of the next data set is mGlu4 (Homo sapiens, UniProt Q14833). The experiment in a line: mGlu selectivity, mGlu4. In kind it is cell-based.
In data set [4] the test system is amphetamine-induced hyperlocomotion in rats. Nature of the data set: Reversal of amphetamine-induced hyperlocomotion. The format is in vivo.

Several values for one entry are separate records, joined by “and”; a condition that tells them apart may be missing. Equal values may be shown once. Entries after “also recorded” stand apart in the source; their conditions may differ. Read-outs that look alike come from different tables or passages of the source.

T1 sequence (P31424 21-1203): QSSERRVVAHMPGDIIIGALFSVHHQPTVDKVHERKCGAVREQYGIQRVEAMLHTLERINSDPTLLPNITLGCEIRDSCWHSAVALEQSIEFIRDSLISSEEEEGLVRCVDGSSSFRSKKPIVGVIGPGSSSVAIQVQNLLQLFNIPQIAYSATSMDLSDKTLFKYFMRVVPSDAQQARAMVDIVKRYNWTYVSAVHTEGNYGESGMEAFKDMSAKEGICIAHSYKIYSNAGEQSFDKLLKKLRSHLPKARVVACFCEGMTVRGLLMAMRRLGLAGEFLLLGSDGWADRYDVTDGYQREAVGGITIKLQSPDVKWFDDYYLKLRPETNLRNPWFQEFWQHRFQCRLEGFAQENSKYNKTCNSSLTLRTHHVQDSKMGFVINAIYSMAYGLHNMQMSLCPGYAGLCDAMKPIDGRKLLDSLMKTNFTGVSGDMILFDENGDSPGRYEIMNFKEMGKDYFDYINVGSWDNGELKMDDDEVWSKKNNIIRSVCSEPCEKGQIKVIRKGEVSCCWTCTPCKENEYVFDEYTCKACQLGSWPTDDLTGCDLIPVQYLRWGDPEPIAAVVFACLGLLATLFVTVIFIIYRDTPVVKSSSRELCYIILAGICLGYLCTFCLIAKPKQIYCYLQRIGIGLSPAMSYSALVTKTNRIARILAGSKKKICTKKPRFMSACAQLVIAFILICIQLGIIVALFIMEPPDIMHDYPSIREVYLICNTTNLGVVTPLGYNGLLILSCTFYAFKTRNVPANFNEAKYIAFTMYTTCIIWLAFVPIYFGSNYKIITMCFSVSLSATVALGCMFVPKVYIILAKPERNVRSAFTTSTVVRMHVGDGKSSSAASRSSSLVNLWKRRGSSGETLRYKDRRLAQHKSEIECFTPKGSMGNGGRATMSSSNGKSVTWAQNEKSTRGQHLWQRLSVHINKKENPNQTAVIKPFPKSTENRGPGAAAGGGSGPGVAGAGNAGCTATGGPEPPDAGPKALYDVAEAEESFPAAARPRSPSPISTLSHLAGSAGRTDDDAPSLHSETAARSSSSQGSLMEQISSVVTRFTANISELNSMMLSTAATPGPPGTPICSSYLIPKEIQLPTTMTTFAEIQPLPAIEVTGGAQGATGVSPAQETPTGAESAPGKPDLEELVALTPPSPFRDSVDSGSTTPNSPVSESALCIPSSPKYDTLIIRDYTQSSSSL
mGlu4, sequence (Q14833 33-912): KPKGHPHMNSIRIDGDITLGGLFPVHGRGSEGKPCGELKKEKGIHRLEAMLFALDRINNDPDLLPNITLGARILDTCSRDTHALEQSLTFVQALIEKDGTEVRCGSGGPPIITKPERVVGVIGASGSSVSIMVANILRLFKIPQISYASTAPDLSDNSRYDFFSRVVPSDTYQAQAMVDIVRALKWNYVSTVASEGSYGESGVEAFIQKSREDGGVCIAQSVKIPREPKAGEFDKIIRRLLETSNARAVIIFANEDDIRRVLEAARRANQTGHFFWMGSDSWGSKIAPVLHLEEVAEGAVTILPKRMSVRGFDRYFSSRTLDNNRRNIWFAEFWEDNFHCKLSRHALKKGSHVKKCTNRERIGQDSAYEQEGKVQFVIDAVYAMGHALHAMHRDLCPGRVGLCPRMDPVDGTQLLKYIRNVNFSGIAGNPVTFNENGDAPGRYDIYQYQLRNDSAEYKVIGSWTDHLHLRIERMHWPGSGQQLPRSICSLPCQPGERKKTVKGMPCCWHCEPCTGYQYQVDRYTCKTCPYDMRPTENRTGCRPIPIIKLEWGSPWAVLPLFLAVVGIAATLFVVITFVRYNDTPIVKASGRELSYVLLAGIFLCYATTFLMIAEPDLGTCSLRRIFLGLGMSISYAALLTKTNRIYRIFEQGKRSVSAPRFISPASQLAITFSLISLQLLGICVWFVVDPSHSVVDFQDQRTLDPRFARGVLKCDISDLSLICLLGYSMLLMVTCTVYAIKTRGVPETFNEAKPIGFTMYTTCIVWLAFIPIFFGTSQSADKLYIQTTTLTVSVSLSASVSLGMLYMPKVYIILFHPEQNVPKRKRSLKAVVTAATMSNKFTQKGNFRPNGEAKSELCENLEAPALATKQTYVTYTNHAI
mGlu2, sequence (Q14416 19-872): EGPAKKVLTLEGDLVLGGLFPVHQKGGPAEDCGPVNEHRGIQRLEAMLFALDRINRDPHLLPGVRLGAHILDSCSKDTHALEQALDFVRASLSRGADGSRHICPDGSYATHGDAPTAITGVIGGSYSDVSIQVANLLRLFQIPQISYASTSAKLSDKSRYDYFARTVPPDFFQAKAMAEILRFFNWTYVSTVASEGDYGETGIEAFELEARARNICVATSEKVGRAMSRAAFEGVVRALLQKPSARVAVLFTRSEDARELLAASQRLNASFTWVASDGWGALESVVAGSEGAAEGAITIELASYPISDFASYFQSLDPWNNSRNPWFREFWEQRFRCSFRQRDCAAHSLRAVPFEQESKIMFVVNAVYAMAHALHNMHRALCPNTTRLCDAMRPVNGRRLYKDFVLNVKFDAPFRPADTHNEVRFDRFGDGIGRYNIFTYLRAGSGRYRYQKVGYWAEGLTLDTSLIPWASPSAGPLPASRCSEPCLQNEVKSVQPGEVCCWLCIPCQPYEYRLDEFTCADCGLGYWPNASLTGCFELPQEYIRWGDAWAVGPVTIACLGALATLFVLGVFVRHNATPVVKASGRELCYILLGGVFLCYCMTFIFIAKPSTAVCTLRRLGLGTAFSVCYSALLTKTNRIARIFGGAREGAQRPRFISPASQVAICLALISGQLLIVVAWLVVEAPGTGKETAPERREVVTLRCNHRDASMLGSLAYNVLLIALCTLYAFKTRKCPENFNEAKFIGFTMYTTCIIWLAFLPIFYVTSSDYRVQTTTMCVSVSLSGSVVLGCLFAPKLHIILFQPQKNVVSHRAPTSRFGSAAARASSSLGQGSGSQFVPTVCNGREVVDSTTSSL
mGlu3, sequence (Q14832 23-879): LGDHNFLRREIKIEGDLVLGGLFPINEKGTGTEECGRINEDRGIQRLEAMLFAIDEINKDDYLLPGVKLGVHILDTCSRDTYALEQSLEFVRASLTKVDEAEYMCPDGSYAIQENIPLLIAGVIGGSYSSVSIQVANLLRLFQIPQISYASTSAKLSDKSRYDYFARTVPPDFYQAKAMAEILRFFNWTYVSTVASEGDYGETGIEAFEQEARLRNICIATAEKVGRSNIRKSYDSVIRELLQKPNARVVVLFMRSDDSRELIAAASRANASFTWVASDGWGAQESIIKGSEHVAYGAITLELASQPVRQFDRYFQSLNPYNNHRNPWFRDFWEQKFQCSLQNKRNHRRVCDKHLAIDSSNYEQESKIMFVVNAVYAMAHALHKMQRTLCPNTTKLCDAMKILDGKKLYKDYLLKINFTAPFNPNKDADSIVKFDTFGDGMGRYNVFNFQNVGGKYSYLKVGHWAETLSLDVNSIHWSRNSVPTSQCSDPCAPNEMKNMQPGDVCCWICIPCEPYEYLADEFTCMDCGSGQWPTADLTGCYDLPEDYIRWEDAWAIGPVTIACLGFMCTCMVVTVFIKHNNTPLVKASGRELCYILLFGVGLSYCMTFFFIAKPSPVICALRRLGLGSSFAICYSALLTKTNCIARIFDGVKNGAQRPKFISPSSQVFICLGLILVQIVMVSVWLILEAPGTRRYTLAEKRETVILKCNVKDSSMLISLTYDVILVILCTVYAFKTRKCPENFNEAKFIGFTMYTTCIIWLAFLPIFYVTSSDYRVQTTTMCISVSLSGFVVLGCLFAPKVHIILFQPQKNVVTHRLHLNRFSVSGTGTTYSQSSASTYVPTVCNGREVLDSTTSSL
mGlu8, sequence (O00222 34-908): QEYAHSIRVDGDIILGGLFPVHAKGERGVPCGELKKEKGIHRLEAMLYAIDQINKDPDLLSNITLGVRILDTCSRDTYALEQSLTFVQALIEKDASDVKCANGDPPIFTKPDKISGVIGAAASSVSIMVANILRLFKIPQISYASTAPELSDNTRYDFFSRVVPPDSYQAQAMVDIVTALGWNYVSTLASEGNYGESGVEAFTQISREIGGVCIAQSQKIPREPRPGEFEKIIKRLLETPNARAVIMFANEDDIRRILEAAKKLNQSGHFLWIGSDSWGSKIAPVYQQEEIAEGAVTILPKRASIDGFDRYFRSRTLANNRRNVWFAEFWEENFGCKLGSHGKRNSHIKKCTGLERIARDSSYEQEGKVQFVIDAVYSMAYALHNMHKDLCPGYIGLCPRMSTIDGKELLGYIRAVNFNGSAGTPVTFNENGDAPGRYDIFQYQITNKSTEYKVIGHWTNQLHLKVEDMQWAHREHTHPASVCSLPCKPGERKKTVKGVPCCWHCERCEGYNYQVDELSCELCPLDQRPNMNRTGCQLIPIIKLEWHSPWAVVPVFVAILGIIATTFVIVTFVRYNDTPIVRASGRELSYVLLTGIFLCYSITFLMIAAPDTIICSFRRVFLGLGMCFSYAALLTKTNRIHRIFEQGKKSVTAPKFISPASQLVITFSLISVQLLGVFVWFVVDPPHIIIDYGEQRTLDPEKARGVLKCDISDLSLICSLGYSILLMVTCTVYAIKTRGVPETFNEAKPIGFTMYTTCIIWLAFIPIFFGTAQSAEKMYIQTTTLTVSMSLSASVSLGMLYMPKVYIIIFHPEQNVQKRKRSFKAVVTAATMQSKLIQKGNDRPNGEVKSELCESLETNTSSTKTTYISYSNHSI

On to `CSc1ncc(C#Cc2ccccc2)cn1` [16d], for which the “IC50/EC50 (nM): EC50” value at mGlu5 [1] was 120 nM.
In the case of `Cc1ccc(C#Cc2ncccn2)cc1` [17c], at mGlu5 [1], the “mGlu5 activity in words” value is “inactive”.
For `N#Cc1cccc(C(=O)Nc2cc(-c3ccccc3)nn2-c2ccccc2)c1` [compound 6, reference compound], the “efficacy in amphetamine-induced hyperlocomotion model” value in [2] is “robust efficacy”. At mGlu5 [3], the “mode of mGlu5 pharmacology in words” value is listed as “ago-potentiators”.
As to `CCOc1ncc(C#Cc2cccc(C)c2)cn1` [16a], the “IC50/EC50 (nM): IC50” value against mGlu5 [1] is on record as 21 nM.
For the compound `Cc1ccc(C#Cc2cncnc2)cc1` [compound 10], on mGlu5 [3] (PAM, table value of earlier compound), the “IC50/EC50 (nM): EC50” value is 3,300±290 nM. For the same compound, on mGlu5 [3] (mGlu5 PAM), the “Fold Shift” value was 4.2 fold and the “efficacy, % of glutamate max” value is recorded as 99%.
On to `CC(C)(C)c1ncc(C#Cc2ccccc2)cn1` [16e], for which, at mGlu5 [1], the “IC50/EC50 (nM): EC50” value worked out at 247 nM.
For `CNc1ncc(C#Cc2ccc(C)cc2)cn1` [16f], the “mGlu5 activity in words” value at mGlu5 [1] is on record as “weak mGlu5 PAM”.
As for `CNc1ncc(C#Cc2cccc(C)c2)cn1` [16c], on mGlu5 [1], the “IC50/EC50 (nM): EC50” value was 21.1 nM and 21 nM.
Turning to `O=C(c1ccc(F)cc1)N1CCC[C@H](c2nc(-c3ccc(F)cc3)no2)C1` [compound 7, reference compound], the “efficacy in amphetamine-induced hyperlocomotion model” value in data set [2] is “robust efficacy”. Moreover, the “mode of mGlu5 pharmacology in words” value on mGlu5 [3] is recorded as “ago-potentiators”.
For `Cc1cccc(C#Cc2ncccn2)c1` [17b], at mGlu2, the “selectivity vs. mGlu2” value is above 10 µM. For the same compound, the “selectivity vs. mGlu1” value at mGlu1 was above 10 µM. Further, in the data set with punished responding, the unpunished responding entry was “no significant effect on unpunished responding; also recorded: did not change significantly at any of the doses tested”. Besides, the “punished responding vs vehicle” value with punished responding (p < 0.05 Newman-Keul) is “both the 10 and 30 mg/kg doses in the punished component of the schedule differed significantly from vehicle; also recorded: significantly greater number of responses than animals tested on vehicle”. Also, at mGlu8, the “selectivity vs. mGlu8” value is above 10 µM. Moreover, the “selectivity vs. mGlu7” value at mGlu7 is above 10 µM. In addition, at mGlu5 [1], the “IC50/EC50 (nM): IC50” value was 10.8 ± 2.7 nM. The “selectivity vs. mGlu3” value at mGlu3 was above 10 µM. Further, the “selectivity vs. mGlu4” value at mGlu4 is above 10 µM.
Consider `CNc1ncc(C#Cc2ccccc2)cn1` [16b], for which the “reversal of amphetamine-induced hyperlocomotion” value in data set [4] (i.p. 3, 10 or 30 mg/kg thirty minutes prior to s.c. 1 mg/kg amphetamine, vehicle 10% Tween 80) is given as “significant reversal noted at the 30 mg/kg dose; also recorded: dose-dependent manner”. In addition, in data set [4] (without amphetamine), the “effect of compound/vehicle alone on locomotion (sedation)” value is “no effect”. For the same compound, on mGlu5 [1], the “mGlu5 activity in words” value was “pure mGlu5 PAM” and the “IC50/EC50 (nM): EC50” value was 14.3 nM. Moreover, at mGlu5 [1] (no glutamate), the “activity in the absence of glutamate (agonism)” value is on record as “does not activate mGlu5”.

These data come from publication PMC3192011 (Journal of medicinal chemistry, 2009).
